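Cultured in 96-well plates, cells were exposed to test compound for 48 hours across five concentrations. The concentration for 50% growth inhibition is given as GI50. TGI: total growth inhibition.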
Legend:
Assay in all cases: DTP human tumour cell line panel, 48 h
SNB-19 CNS = system: SNB-19 CNS
NCI-H23 lung = system: NCI-H23 lung
UACC-62 melanoma = system: UACC-62 melanoma
MALME-3M melanoma = system: MALME-3M melanoma
SF-539 CNS = system: SF-539 CNS
UACC-257 melanoma = system: UACC-257 melanoma
HS 578T breast = system: HS 578T breast
COLO 205 colon = system: COLO 205 colon
OVCAR-8 ovarian = system: OVCAR-8 ovarian
MDA-MB-231 breast = system: MDA-MB-231 breast

Fc1cccc(Cl)c1/C=N\N=C1c2ccccc2-c2ccccc21
TGI (SNB-19 CNS): > 100 µM
TGI (NCI-H23 lung): > 100 µM
TGI (UACC-62 melanoma): > 100 µM
TGI (MALME-3M melanoma): > 100 µM
TGI (SF-539 CNS): > 100 µM
TGI (UACC-257 melanoma): > 100 µM
TGI (HS 578T breast): > 100 µM
TGI (COLO 205 colon): > 100 µM
TGI (OVCAR-8 ovarian): > 100 µM
TGI (MDA-MB-231 breast): > 100 µM

Oc1ccccc1-c1nc2c3ccccc3c3ccccc3c2[nH]1
GI50 (SNB-19 CNS): 12.4 µM
TGI (SNB-19 CNS): 24.9 µM
GI50 (NCI-H23 lung): 9.84 µM
TGI (NCI-H23 lung): 22.3 µM
GI50 (UACC-62 melanoma): 3.1 µM
TGI (UACC-62 melanoma): 12.4 µM
GI50 (MALME-3M melanoma): 16.2 µM
TGI (MALME-3M melanoma): 31.7 µM
GI50 (SF-539 CNS): 9.28 µM
TGI (SF-539 CNS): 21.2 µM
GI50 (UACC-257 melanoma): 14.1 µM
TGI (UACC-257 melanoma): 27.1 µM
GI50 (HS 578T breast): 12.4 µM
TGI (HS 578T breast): 29.7 µM
GI50 (COLO 205 colon): 10.8 µM
TGI (COLO 205 colon): 22.7 µM
GI50 (OVCAR-8 ovarian): 12.1 µM
TGI (OVCAR-8 ovarian): 24.5 µM
GI50 (MDA-MB-231 breast): 1.96 µM
TGI (MDA-MB-231 breast): 4.44 µM

O=Cc1ccc(-c2cccs2)s1
TGI (SNB-19 CNS): > 100 µM
TGI (NCI-H23 lung): > 68.1 µM
TGI (UACC-62 melanoma): 4.42 µM
TGI (MALME-3M melanoma): > 100 µM
TGI (SF-539 CNS): > 100 µM
TGI (UACC-257 melanoma): 15.1 µM
TGI (HS 578T breast): 98 µM
TGI (COLO 205 colon): 54.8 µM
TGI (OVCAR-8 ovarian): > 100 µM
TGI (MDA-MB-231 breast): > 100 µM

CC1CCN(CC(=O)N2c3ccccc3Sc3cc4ccccc4cc32)CC1
TGI (SNB-19 CNS): > 100 µM
TGI (NCI-H23 lung): > 100 µM
TGI (UACC-62 melanoma): > 100 µM
TGI (MALME-3M melanoma): > 100 µM
TGI (SF-539 CNS): > 100 µM
TGI (UACC-257 melanoma): > 100 µM
TGI (HS 578T breast): > 100 µM
TGI (COLO 205 colon): > 100 µM
TGI (OVCAR-8 ovarian): > 100 µM
TGI (MDA-MB-231 breast): > 100 µM

Cc1cc(N/N=C/c2nc(-c3ccc(Cl)cc3)oc2C)c2cc(Cl)ccc2n1
GI50 (SNB-19 CNS): 3.95 µM
TGI (SNB-19 CNS): 16.1 µM
GI50 (NCI-H23 lung): 5.34 µM
TGI (NCI-H23 lung): 19.1 µM
GI50 (UACC-62 melanoma): 1.8 µM
TGI (UACC-62 melanoma): 3.54 µM
GI50 (MALME-3M melanoma): 1.78 µM
TGI (MALME-3M melanoma): 3.36 µM
GI50 (SF-539 CNS): 1.88 µM
TGI (SF-539 CNS): 3.46 µM
GI50 (UACC-257 melanoma): 1.93 µM
TGI (UACC-257 melanoma): 4.52 µM
GI50 (HS 578T breast): 3.42 µM
TGI (HS 578T breast): 14.7 µM
GI50 (COLO 205 colon): 2.31 µM
TGI (COLO 205 colon): 6.57 µM
GI50 (OVCAR-8 ovarian): 2.05 µM
TGI (OVCAR-8 ovarian): 5.06 µM
GI50 (MDA-MB-231 breast): 3.25 µM
TGI (MDA-MB-231 breast): 10.3 µM

N#C[C@@H]1C(n2ccc(N)nc2=O)O[C@H](CO)[C@H]1O (stereo not given in full)
GI50 (SNB-19 CNS): 10.3 µM
TGI (SNB-19 CNS): > 100 µM
GI50 (NCI-H23 lung): 4.51 µM
TGI (NCI-H23 lung): > 100 µM
GI50 (UACC-62 melanoma): 28 µM
TGI (UACC-62 melanoma): > 100 µM
GI50 (MALME-3M melanoma): > 55.4 µM
TGI (MALME-3M melanoma): > 100 µM
GI50 (SF-539 CNS): > 100 µM
TGI (SF-539 CNS): > 100 µM
GI50 (UACC-257 melanoma): > 93.3 µM
TGI (UACC-257 melanoma): > 100 µM
GI50 (HS 578T breast): > 100 µM
TGI (HS 578T breast): > 100 µM
GI50 (COLO 205 colon): 8.79 µM
TGI (COLO 205 colon): > 100 µM
GI50 (OVCAR-8 ovarian): 6 µM
TGI (OVCAR-8 ovarian): > 100 µM
GI50 (MDA-MB-231 breast): > 100 µM
TGI (MDA-MB-231 breast): > 100 µM

COc1cc(Cn2c(-c3nonc3N)nc3ccccc32)ccc1C
GI50 (SNB-19 CNS): 0.626 µM
TGI (SNB-19 CNS): 45.5 µM
GI50 (NCI-H23 lung): 1.02 µM
TGI (NCI-H23 lung): > 55.6 µM
GI50 (UACC-62 melanoma): 0.848 µM
TGI (UACC-62 melanoma): > 100 µM
GI50 (MALME-3M melanoma): 0.526 µM
TGI (MALME-3M melanoma): 72.7 µM
GI50 (SF-539 CNS): 0.226 µM
TGI (SF-539 CNS): 0.663 µM
GI50 (UACC-257 melanoma): 0.419 µM
TGI (UACC-257 melanoma): > 100 µM
GI50 (HS 578T breast): 0.326 µM
TGI (HS 578T breast): 24.4 µM
GI50 (COLO 205 colon): 0.337 µM
TGI (COLO 205 colon): 1.39 µM
GI50 (OVCAR-8 ovarian): 0.729 µM
TGI (OVCAR-8 ovarian): > 100 µM
GI50 (MDA-MB-231 breast): 1.02 µM
TGI (MDA-MB-231 breast): 38.1 µM

CC(C)[C@H]1C(=O)N[C@@H](CCCN=C(N)N)C(=O)NCC(=O)N[C@@H](CC(=O)O)C(=O)N[C@H](Cc2ccccc2)C(=O)N1C
GI50 (SNB-19 CNS): 2.66 µM
TGI (SNB-19 CNS): > 100 µM
GI50 (NCI-H23 lung): 10.6 µM
TGI (NCI-H23 lung): 67.6 µM
GI50 (UACC-62 melanoma): > 100 µM
TGI (UACC-62 melanoma): > 100 µM
GI50 (MALME-3M melanoma): > 100 µM
TGI (MALME-3M melanoma): > 100 µM
GI50 (SF-539 CNS): > 100 µM
TGI (SF-539 CNS): > 100 µM
GI50 (UACC-257 melanoma): > 27.9 µM
TGI (UACC-257 melanoma): > 100 µM
GI50 (HS 578T breast): 19.8 µM
TGI (HS 578T breast): > 100 µM
GI50 (COLO 205 colon): > 100 µM
TGI (COLO 205 colon): > 100 µM
GI50 (OVCAR-8 ovarian): 7.35 µM
TGI (OVCAR-8 ovarian): > 100 µM
GI50 (MDA-MB-231 breast): 1.83 µM
TGI (MDA-MB-231 breast): > 28.9 µM

Cn1c(=O)c2c(ncn2CN2CCN(Cn3cnc4c3c(=O)n(C)c(=O)n4C)CC2)n(C)c1=O
TGI (SNB-19 CNS): > 100 µM
TGI (NCI-H23 lung): > 100 µM
TGI (UACC-62 melanoma): > 100 µM
TGI (MALME-3M melanoma): > 100 µM
TGI (SF-539 CNS): > 100 µM
TGI (UACC-257 melanoma): > 100 µM
TGI (HS 578T breast): > 100 µM
TGI (COLO 205 colon): > 100 µM
TGI (OVCAR-8 ovarian): > 100 µM
TGI (MDA-MB-231 breast): > 100 µM

COC1CC(OC(=O)c2ccccc2)C(OC(=O)c2ccccc2)C(C)O1 (stereo not given)
TGI (SNB-19 CNS): > 100 µM
TGI (NCI-H23 lung): > 100 µM
TGI (UACC-62 melanoma): > 100 µM
TGI (MALME-3M melanoma): > 100 µM
TGI (SF-539 CNS): > 100 µM
TGI (UACC-257 melanoma): > 100 µM
TGI (HS 578T breast): > 100 µM
TGI (COLO 205 colon): > 100 µM
TGI (OVCAR-8 ovarian): > 100 µM
TGI (MDA-MB-231 breast): > 100 µM

CCOc1c(Cl)cc(CNC(C)C(O)c2ccccc2)cc1OC (stereo not given)
GI50 (SNB-19 CNS): 32.7 µM
TGI (SNB-19 CNS): > 100 µM
GI50 (NCI-H23 lung): 31.3 µM
TGI (NCI-H23 lung): > 100 µM
GI50 (UACC-62 melanoma): 17.9 µM
TGI (UACC-62 melanoma): 38.9 µM
GI50 (MALME-3M melanoma): 16.6 µM
TGI (MALME-3M melanoma): 33.6 µM
GI50 (SF-539 CNS): 16.8 µM
TGI (SF-539 CNS): 34 µM
GI50 (UACC-257 melanoma): 19.1 µM
TGI (UACC-257 melanoma): 43.1 µM
GI50 (HS 578T breast): 23.5 µM
TGI (HS 578T breast): 93 µM
GI50 (COLO 205 colon): 19 µM
TGI (COLO 205 colon): 35.9 µM
GI50 (OVCAR-8 ovarian): 19.8 µM
TGI (OVCAR-8 ovarian): 48 µM
GI50 (MDA-MB-231 breast): 15.6 µM
TGI (MDA-MB-231 breast): 54.7 µM

O=C1CC(=O)OC(c2ccc([N+](=O)[O-])cc2)O1
GI50 (SNB-19 CNS): 3.43 µM
TGI (SNB-19 CNS): 12.3 µM
GI50 (NCI-H23 lung): 2.15 µM
TGI (NCI-H23 lung): 5.2 µM
GI50 (UACC-62 melanoma): 2.14 µM
TGI (UACC-62 melanoma): 5.54 µM
GI50 (MALME-3M melanoma): 2.28 µM
TGI (MALME-3M melanoma): 7.02 µM
GI50 (SF-539 CNS): 1.98 µM
TGI (SF-539 CNS): 4.3 µM
GI50 (UACC-257 melanoma): 1.66 µM
TGI (UACC-257 melanoma): 3.36 µM
GI50 (HS 578T breast): 2.7 µM
TGI (HS 578T breast): 11.9 µM
GI50 (COLO 205 colon): 1.79 µM
TGI (COLO 205 colon): 3.41 µM
GI50 (OVCAR-8 ovarian): 2.42 µM
TGI (OVCAR-8 ovarian): 7.83 µM
GI50 (MDA-MB-231 breast): 2.21 µM
TGI (MDA-MB-231 breast): 5.09 µM
